Results reported in patent EP2545917B1, “NOVEL EP4 AGONIST” (Kaken Pharmaceutical Co., Ltd., priority 2010, dated 2011).

Key:
[1] = tested on: anti-Thy-1 antibody-induced glomerulonephritis; assay: Anti-Thy-1 antibody-induced glomerulonephritis model in rats; assay type: in vivo, Wistar rats; settings: oral 0.3 mg/kg twice a day
Description: Male Slc: Wistar rats (6 weeks old, Japan SLC) were purchased, acclimated for 1 week and used for the study. Except the normal group, anti-Thy-1 antibody (mouse anti-CD90 antibody (UK-Serotech Ltd. Code:MCA47XZ, clone No: MRC OX-7, Lot No.0303)) was administered once intravenously to the animals. A mixture of compound F and compound J (F:J = 52:41, indicated as compound F/J) was orally administered from the day of the antibody administration (day 0) to day 6, daily, twice a day (morning and evening; each 0.3 mg/kg). After 3 days from the antibody administration, urine was collected for one day. On day 7 of the antibody administration, the animal was autopsied. The right kidney was isolated, weighed and fixed with formalin. Five to 8 animals were used for each group and the results were expressed as average ± standard deviation.

[2] = tested on: dextran sodium sulfate-induced colitis; assay: Therapeutic effect on remission/relapse model of dextran sodium sulfate-induced colitis in mice; assay type: in vivo, BALB/c mice; settings: SASP 100 mg/kg
Excerpt: Next, therapeutic effect of compound F on colitis was studied in a chronic model. Female BALB/c mice, 6 weeks old, body weight about 20 g (Japan SLC) were purchased, acclimated for 1 week and used for the study. The mice were divided into a colitis induction group and a normal group. The colitis induction group was allowed to freely drink a 2.6 w/v% DSS (MP Biochemicals, M.W. 36,000- 50,000, Lot No. 4556J) solution to induce colitis. On day 8 when the stool score (defined in Example 23) of the colitis induction group reached about 4.5, the mice were subdivided into a control group, a compound F 1 mg/kg administration group and a salazosulfapyridine (SIGMA, Lot No. 085K1930, hereinafter to be abbreviated as SASP) 100 mg/kg administration group. Then the mice were allowed to freely drink distilled water instead of DSS solution for 9 days (remission period). After the grouping, the stool score was evaluated every 3 - 4 days. When the score of the control group reached about 1, the mice were again allowed to drink the DSS solution to cause a relapse (relapse period). The periods of remission and relapse were taken as 1 cycle and the cycle was repeated 5 times. As for the 5th cycle, however, only the remission period was performed.
Compound F at a dose of 1 mg/kg and SASP at a dose of 100 mg/kg were orally administered once a day, daily, for 50 days from the initial remission period (day 8 from the start of 2.6 w/v% DSS drinking) to the fifth remission period (day 57 from the start of 2.6 w/v% DSS drinking). To the control group was orally administered a solvent (1 vol% ethanol solution) at 10 mL/kg. If a mouse had score 0 of both stool consistency score and occult blood score on the last day of each remission period, the mouse was regarded as "in remission". The remission ratio (%) was calculated as a ratio of mice in remission in each group. Eight to 10 mice were used for each group and the results are shown in average value.

[3] = tested on: concanavalin A-induced hepatitis; assay: Prophylactic effect on concanavalin A-induced hepatitis model in mice; assay type: in vivo, BALB/c mice; settings: oral 1 hr before Con A, compound F 1 mg/10 mL/kg, prednisolone 5 mg/10 mL/kg, 20 hr after Con A
Description: BALB/c mice (female, 7 weeks old, Japan SLC) were purchased, acclimated for 1 week and used for the study. Except the no-induction group, Con A (type IV, Sigma-Aldrich) dissolved in saline was administered from the tail vein of the mice at a dose of 12.5 mg/10 mL/kg to induce hepatitis. Twenty hr later, the mice were subjected to laparotomy under ether anesthesia. A 0.5 mL of blood sample was collected from the caudal vena cava and heparinized plasma was obtained to measure plasma ALT and AST activities. Test substances were compound F (1 mg/10 mL solution), prednisolone (Nacalai Tesque, 5 mg/10 mL suspension (with 0.5 w/v% methylcellulose)) and water for injection (administered to the control group), which were orally administered at a volume of 10 mL/kg 1 hr before Con A injection. Seven to 9 animals were used for each group. After logarithmic transformation of the data, one-way analysis of variance was performed for statistical evaluation.

[4] = tested on: CD4+CD25- T cell transfer colitis; assay: Prophylactic effect on CD4+CD25- T cell transfer colitis model in mice; assay type: in vivo, C.B-17/Icr-scid mice; settings: scid mice, oral 1 mg/kg once a day for 20 days
Description: Female BALB/cA Jcl mice, 6 weeks old, body weight 19 - 23 g (CLEA Japan, Inc.) and female C.B-17/Icr-scid mice (6 weeks old, CLEA Japan, Inc.) were purchased, acclimated for 1 week and used for the study. After laparotomy under ether anesthesia, BALB/cA Jcl mice were exsanguinated to death through the abdominal aorta and caudal vena cava, and the spleen was isolated. Splenocytes were prepared from the spleen and then CD4^+CD25^- T cells were prepared with a CD4^+ T cell Isolation Kit (No. 130-090-860, Milky Biotech Co., Ltd.) and CD25-Biotin antibody (No. 130-092-569, Milky Biotech Co., Ltd.). The cells were separated using the autoMACS Separator (Milky Biotech Co., Ltd.). The separated CD4^+CD25^- T cells were suspended in physiological phosphate buffer solution, and 2.5×10^5 cells per animal were intraperitoneally administered to C.B-17/Icr-scid mice to induce colitis. […] To the control group was orally administered a solvent (1 vol% ethanol solution) at 10 mL/kg. […] The fecal occult blood score was evaluated in the same manner as in Example 23. […] Eight to 10 mice were used for each group and the results were expressed as average.

[5] = mice, oral once a day, Compound F 1 mg/kg

Cc1cccc(C(C)[C@H](O)/C=C/[C@@H]2[C@@H]3[C@H](C[C@H]2O)O/C(=C\CCCc2nnn[nH]2)C3(F)F)c1 (mixture of isomers) [compound F/J, 4-[(Z)-(1S,5R,6R,7R)-6-[(1E,3R,4RS)-3-hydroxy-4-(m-tolyl)-1-pentenyl]-7-hydroxy-2-oxa-4,4-difluoro-bicyclo[3.3.0]octan-3-ylidene]-1-(tetrazol-5-yl)butane]
body weight [1]: a shift similar to that of the control group | relative kidney weight ([1]; day 7): a value lower than control and near the normal | renal histopathology: total glomerular cells, mesangial region and PCNA-positive cells in the glomerulus ([1]; day 7): significantly suppressed the increase in all of these measures | 24-hr urine protein ([1]; urine collected after 3 days): a lower value than control | 24-hr urine volume ([1]; urine collected after 3 days): of the same level as the normal group

O=C(O)c1cc(/N=N/c2ccc(S(=O)(=O)Nc3ccccn3)cc2)ccc1O [SASP, salazosulfapyridine, reference compound]
Remission Ratio Average ([2]; average of 5 remission periods, Compound F 1 mg/kg): 40.0% | effect on stool score in remission and relapse periods ([2]; mice, oral once a day for 50 days, compound F 1 mg/kg): did not show a clear effect on the stool score in either the remission period or the relapse period | Remission Ratio Cycle 1 [2, 5]: 50.0% | Remission Ratio Cycle 2 [2, 5]: 50.0% | Remission Ratio Cycle 3 [2, 5]: 37.5% | Remission Ratio Cycle 4 [2, 5]: 50.0% | Remission Ratio Cycle 5 [2, 5]: 12.5%

C[C@]12C=CC(=O)C=C1CC[C@@H]1[C@@H]2[C@@H](O)C[C@@]2(C)[C@H]1CC[C@]2(O)C(=O)CO [prednisolone, reference compound]
effect on increase of plasma ALT activity [3]: significantly and strongly suppressed the increase | effect on increase of plasma AST activity [3]: significantly and strongly suppressed the increase | effect on body weight decrease score [4]: clearly worsened the score | effect on stool consistency score [4]: failed to show a clear effect on the stool consistency score on day 21
